This is an account of results in patent publication US20030229053A1, “Compounds and methods for the treatment or prevention of flavivirus infections” (Shire BioChem Inc., priority 2001, published 2003).

SMILES strings stand for the structures.

Sequence of recombinant HCV NS5B (P26663 2420-3010 limits assumed): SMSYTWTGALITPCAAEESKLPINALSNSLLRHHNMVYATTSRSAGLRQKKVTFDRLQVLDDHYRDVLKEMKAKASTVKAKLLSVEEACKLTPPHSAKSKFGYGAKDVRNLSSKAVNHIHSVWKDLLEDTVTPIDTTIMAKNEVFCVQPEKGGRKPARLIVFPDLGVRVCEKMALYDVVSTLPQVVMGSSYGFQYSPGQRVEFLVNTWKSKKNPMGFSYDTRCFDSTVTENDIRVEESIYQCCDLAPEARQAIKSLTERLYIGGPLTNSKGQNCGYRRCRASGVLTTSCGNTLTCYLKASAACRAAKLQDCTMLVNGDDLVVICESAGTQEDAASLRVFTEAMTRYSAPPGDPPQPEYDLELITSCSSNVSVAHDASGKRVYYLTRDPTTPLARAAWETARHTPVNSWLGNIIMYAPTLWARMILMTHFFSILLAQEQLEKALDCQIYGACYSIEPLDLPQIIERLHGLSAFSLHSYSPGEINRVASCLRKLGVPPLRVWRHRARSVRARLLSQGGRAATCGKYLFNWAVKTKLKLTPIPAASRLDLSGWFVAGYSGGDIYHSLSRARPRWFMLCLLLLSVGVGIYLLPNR

For the first test, the target named is HCV NS5B RNA-dependent RNA polymerase (Hepatitis C virus genotype 1b, UniProt P26663). The test can be described thus: In vitro RNA-dependent RNA polymerase assay (Assay 1), polyA/oligo dT, TCA precipitation. The test is classed as biochemical.
Sequence of HCV NS5B RNA-dependent RNA polymerase (P26663 2420-3010 limits assumed): as above
Details: not given
The procedure, abridged:
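Purified NS5B (200 ng) on annealed polyA/oligo dT15 in 20 mM Tris-HCl pH 7.5, 50 mM NaCl, 5 mM MgCl2, 1 mM DTT, 15 µM cold UTP plus [32P]-UTP, 2 h at 22°C. Product TCA-precipitated, filtered onto glass-fibre and counted by liquid scintillation.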
For the compound `O=C(O)[C@H](Cc1ccccc1)N(Cc1ccc(-c2cc3ccccc3o2)s1)C(=O)c1ccc(Cl)cc1Cl` [compound #85, (2s)-2-[(5-Benzofuran-2-yl-thiophen-2-ylmethyl)-(2,4-dichloro-benzoyl)-amino]-3-phenyl-propionic acid], the IC50 (usually the point on the concentration scale where inhibition reaches its midpoint) was < 5 µM.

With `O=C(O)[C@H](Cc1ccccc1)N(Cc1ccc(Br)s1)C(=O)c1ccc(Cl)cc1Cl` [compound #82, (2s)-2-[(5-Bromo-thiophen-2-ylmethyl)-(2,4-dichloro-benzoyl)-amino]-3-phenyl-propionic acid], the IC50 was < 5 µM.

Take `O=C(O)[C@H](Cc1ccccc1)N(Cc1cccc(Br)c1)C(=O)c1ccc(Cl)cc1Cl` [compound #9, (2s)-2-[(3-Bromo-benzyl)-(2,4-dichloro-benzoyl)-amino]-3-phenyl-propionic acid]: the IC50 was < 5 µM.

The test is the same for the next values; noted with them: polyA/oligo dT template/primer, 200 ng NS5B, 2 h at 22° C.; read-out: RNA pol Assay 1 IC50 (μm).
In the case of `O=C(O)[C@H](Cc1ccccc1)N(Cc1cccc(-c2cc3ccccc3o2)c1)C(=O)c1ccc(Cl)cc1Br` [compound #49, (2s)-2-[(3-Benzofuran-2-yl-benzyl)-(2-bromo-4-chloro-benzoyl)-amino]-3-phenyl-propionic acid], the IC50 was < 5 µM.

Consider `O=C(O)[C@H](Cc1ccccc1)N(C(=O)c1ccc(Cl)cc1Cl)c1ccc(-c2cc3ccccc3o2)cc1` [compound #114, (2s)-2-[(4-Benzofuran-2-yl-phenyl)-(2,4-dichloro-benzoyl)-amino]-3-phenyl-propionic acid], for which the IC50 was < 5 µM.

For the compound `O=C(O)[C@H](Cc1ccccc1)N(Cc1ccc(-c2ccc(Cl)cc2Cl)s1)C(=O)c1ccc(Cl)cc1Cl` [compound #93, (2s)-2-{(2,4-Dichloro-benzoyl)-[5-(2,4-dichloro-phenyl)-thiophen-2-ylmethyl]-amino}-3-phenyl-propionic acid], the half-maximal inhibitory concentration (IC50) is < 5 µM.

As for `O=C(O)c1ccc(-c2ccc(CN(C(=O)c3ccc(Cl)cc3Cl)[C@@H](Cc3ccccc3)C(=O)O)o2)cc1` [compound #77, (2s)-4-(5-{[(1s-1-Carboxy-2-phenyl-ethyl)-(2,4-dichloro-benzoyl)-amino]-methyl}-furan-2-yl)-benzoic acid], the IC50 is < 5 µM.

Turning to `CCN(CC)c1ncc(CN(C(=O)c2ccc(Cl)cc2Cl)[C@@H](Cc2ccccc2)C(=O)O)s1` [compound #104, (2s)-2-[(2,4-Dichloro-benzoyl)-(2-diethylamino-thiazol-5-ylmethyl)-amino]-3-phenyl-propionic acid], the IC50 is < 5 µM.

Take `O=C(O)[C@H](Cc1ccccc1)N(Cc1cccc(Br)c1)S(=O)(=O)c1ccc(Cl)cc1Cl` [compound #20, (2s)-2-[(3-Bromo-benzyl)-(2,4-dichloro-benzenesulfonyl)-amino]-3-phenyl-propionic acid]: the IC50 was > 20 µM.

Regarding `O=C(O)[C@H](Cc1ccccc1)N(Cc1ccc(Br)cc1)C(=O)c1ccc(Cl)cc1Cl` [compound #3, (2s)-2-[(4-Bromo-benzyl)-(2,4-dichloro-benzoyl)-amino]-3-phenyl-propionic acid], the IC50 was < 5 µM.

With `O=C(O)[C@H](Cc1ccccc1)N(Cc1cccc(-c2cc3ccccc3o2)c1)C(=O)Cc1ccc(Cl)cc1Cl` [compound #37, (2s)-2-{(3-Benzofuran-2-yl-benzyl)-[(2,4-dichloro-phenyl)-acetyl]-amino}-3-phenyl-propionic acid], the IC50 was < 5 µM.

With `O=C(O)[C@H](Cc1ccccc1)N(Cc1ccc(-c2ccc(F)c(Cl)c2)s1)C(=O)c1ccc(Cl)cc1Cl` [compound #91, (2s)-2-[[5-(3-Chloro-4-fluoro-phenyl)-thiophen-2-ylmethyl]-(2,4-dichloro-benzoyl)-amino]-3-phenyl-propionic acid], the IC50 is < 5 µM.

As for `O=C(O)[C@H](Cc1ccccc1)N(Cc1ccc(-c2ccc(Cl)c(F)c2)o1)C(=O)c1ccc(Cl)cc1Cl` [compound #70, (2s)-2-[[5-(4-Chloro-3-fluoro-phenyl)-furan-2-ylmethyl]-(2,4-dichloro-benzoyl)-amino]-3-phenyl-propionic acid], the IC50 is < 5 µM.

Turning to `O=C(O)[C@H](Cc1ccccc1)N(Cc1ccc(-c2ccc(Cl)c(Cl)c2)o1)C(=O)c1ccc(Cl)cc1Cl` [compound #65, (2s)-2-{(2,4-Dichloro-benzoyl)-[5-(3,4-dichloro-phenyl)-furan-2-ylmethyl]-amino}-3-phenyl-propionic acid], the IC50 is < 5 µM.

Turning to `O=C(O)c1cccc(-c2ccc(CN(C(=O)c3ccc(Cl)cc3Cl)[C@@H](Cc3ccccc3)C(=O)O)o2)c1` [compound #76, (2s)-3-(5-{[(1s-1-Carboxy-2-phenyl-ethyl)-(2,4-dichloro-benzoyl)-amino]-methyl}-furan-2-yl)-benzoic acid], the IC50 was < 5 µM.

For `O=C(O)[C@H](Cc1ccccc1)N(Cc1cc(-c2ccc(Cl)c(F)c2)cs1)C(=O)c1ccc(Cl)cc1Cl` [compound #88, (2s)-2-[[4-(4-Chloro-3-fluoro-phenyl)-thiophen-2-ylmethyl]-(2,4-dichloro-benzoyl)-amino]-3-phenyl-propionic acid], the IC50 is < 5 µM.

As for `O=C(c1cccc(CN(C(=O)c2ccc(Cl)cc2Cl)[C@@H](Cc2ccccc2)C(=O)O)c1)c1ccc(Cl)cc1Cl` [compound #44, (2s)-2-{(2,4-Dichloro-benzoyl)-[3-(2,4-dichloro-benzoyl)-benzyl]-amino}-3-phenyl-propionic acid], the IC50 is < 5 µM.

Another test addresses recombinant HCV NS5B (Hepatitis C virus genotype 1b, UniProt P26663). Nature of the test: biochemical. The conditions noted are these: flashplate, polyrA/biotinylated-oligo dT, 100 nM NS5B, 2 hrs at room temperature; read-out: RNA pol Assay 2 IC50 (μm). The procedure: In vitro HCV RdRp Flashplate Scintillation Proximity Assay (Strep-Flash Assay) Used to Evaluate Analogues:
In brief, a 400 ng/μl polyrA solution (Amersham Pharmacia Biotech) was mixed volume-to-volume with 5′ biotin-oligo dT12 at 20 pmol/μl. The template and primers were denatured at 95 C for 5 minutes then incubated at 37 C for 10 minutes. Annealed template-primers were subsequently diluted in a Tris-HCl containing buffer and allowed to bind to streptavidin-coated flashplates overnight.
In the case of `Cc1cccc(CN(C(=O)c2ccc(Cl)cc2Cl)[C@@H](Cc2ccccc2)C(=O)O)c1` [compound #152, (2s)-2-[(2,4-Dichloro-benzoyl)-(3-methyl-benzyl)-amino]-3-phenyl-propionic acid], the IC50 is < 5 µM.

Turning to `O=C(O)[C@H](Cc1ccccc1)N(Cc1sccc1-c1ccc(Cl)c(Cl)c1)C(=O)c1ccc(Cl)cc1Cl` [compound #155, (2s)-2-{(2,4-Dichloro-benzoyl)-[3-(3,4-dichloro-phenyl)-thiophen-2-ylmethyl]-amino}-3-phenyl-propionic acid], the IC50 was < 5 µM.

Regarding `O=C(O)[C@H](Cc1ccccc1)N(Cc1sccc1-c1cc(F)cc(F)c1)C(=O)c1ccc(Cl)cc1Cl` [compound #154, (2s)-2-{(2,4-Dichloro-benzoyl)-[3-(3,5-difluoro-phenyl)-thiophen-2-ylmethyl]-amino}-3-phenyl-propionic acid], the IC50 is < 5 µM.

Take `O=C(O)[C@H](Cc1ccccc1)N(C[C@@H]1CCCN1)C(=O)c1ccc(Cl)cc1Cl` [compound #167, 1-2-[(2,4-Dichloro-benzoyl)-pyrrolidin-2-ylmethyl-amino]-3-phenyl-propionic acid]: the IC50 was 5 to 20 µM.

Take `CN(C(=O)c1ccc(Cl)cc1Cl)[C@H](Cc1ccc(Br)cc1)C(=O)O` [compound #189, 3-(4-Bromo-phenyl)-2-[(2,4-dichloro-benzoyl)-methyl-amino]-propionic acid]: the IC50 is < 5 µM.

Consider `O=C(O)[C@H](Cc1ccccc1)N(Cc1csc([N+](=O)[O-])c1)C(=O)c1ccc(Cl)cc1Cl` [compound #149, (2s)-2-[(2,4-Dichloro-benzoyl)-(5-nitro-thiophen-3-ylmethyl)-amino]-3-phenyl-propionic acid], for which the IC50 is < 5 µM.

For `O=C(O)[C@H](Cc1ccccc1)N(Cc1sccc1-c1cc(C(F)(F)F)cc(C(F)(F)F)c1)C(=O)c1ccc(Cl)cc1Cl` [compound #181, 2-[[3-(3,5-Bis-trifluoromethyl-phenyl)-thiophen-2-ylmethyl]-(2,4-dichloro-benzoyl)-amino]-3-phenyl-propionic acid], the IC50 was in the range of 5 to 20 µM.

For `O=C(O)[C@H](Cc1ccccc1)N(Cc1cnc(Cl)s1)C(=O)c1ccc(Cl)cc1Cl` [compound #140, (2s)-2-[(2-Chloro-thiazol-5-ylmethyl)-(2,4-dichloro-benzoyl)-amino]-3-phenyl-propionic acid], the IC50 is < 5 µM.

In the case of `CN(C(=O)c1ccc(Cl)cc1Cl)[C@@H](Cc1ccccc1Br)C(=O)O` [compound #188, 3-(2-Bromo-phenyl)-2-[(2,4-dichloro-benzoyl)-methyl-amino]-propionic acid], the IC50 is 5 to 20 µM.

`CN(C(=O)c1ccc(Cl)cc1Cl)[C@H](Cc1ccc(Br)s1)C(=O)O` (stereo in doubt) [compound #169, 3-(5-Bromo-thiophen-2-yl)-2-[(2,4-dichloro-benzoyl)-methyl-amino]-propionic acid]: the IC50 is < 5 µM.

For the compound `O=C(O)[C@H](Cc1ccccc1)N(Cc1sccc1-c1cccnc1)C(=O)c1ccc(Cl)cc1Cl` [compound #185, 2-[(2,4-Dichloro-benzoyl)-(3-pyridin-3-yl-thiophen-2-ylmethyl)-amino]-3-phenyl-propionic acid], the IC50 was < 5 µM.

Turning to `O=C(O)[C@H](Cc1ccccc1)N(Cc1sccc1-c1ccncc1)C(=O)c1ccc(Cl)cc1Cl` [compound #182, 2-[(2,4-Dichloro-benzoyl)-(3-pyridin-4-yl-thiophen-2-ylmethyl)-amino]-3-phenyl-propionic acid], the IC50 lay within 5 to 20 µM.

`O=C(O)[C@H](Cc1ccccc1)N(Cc1sccc1Br)C(=O)c1ccc(Cl)cc1Cl` [compound #146, (2s)-2-[(3-Bromo-thiophen-2-ylmethyl)-(2,4-dichloro-benzoyl)-amino]-3-phenyl-propionic acid]: the IC50 is < 5 µM.

In the case of `CC(=O)c1cccc(CN(C(=O)c2ccc(Cl)cc2Cl)[C@@H](Cc2ccccc2)C(=O)O)c1` [Compound #209, 2-[(3-ACETYL-BENZYL)-(2,4-DICHLORO-BENZOYL)-AMINO]-3-PHENYL-PROPIONIC ACID], the IC50 was < 5 µM.
